According to patent publication US12702712B2, “Enteroendocrine cell-targeting polymer substance conjugated with photosensitizer, and medical use thereof for ameliorating metabolic disease” (The Catholic University of Korea Industry-Academic …, priority 2020, dated 2026):

Experiments:
[1] = Singlet oxygen formation in aqueous phase (SOSG fluorescence, laser irradiation); details: 5 μg/mL in aqueous phase with SOSG; laser 670 nm, 4 J/cm^2, 20 mW/cm^2, 200 seconds
Experimental: Singlet oxygen sensor green (SOSG), which is a fluorescent detecting substance that directly reacts with singlet oxygen, was dispersed in an aqueous phase, oleic acid-polyethylene glycol-chlorin e6 (5 μg/mL) was added thereto, and the resulting mixture was mixed. As a comparative example, chlorin e6 (5 μg/mL) or polyethylene glycol-chlorin e6 (5 μg/mL) was used. When OA-PEG-Ce6 and SOSG coexisted in the aqueous phase, the mixture was irradiated with a laser (670 nm) (4 J/cm^2, 20 mW/cm^2, 200 seconds), and the degree of fluorescence was measured by an RF analyzer.

[2] = Dispersion in aqueous phase; type: physicochemical; details: water
insulin = test: Plasma insulin by ELISA after photodynamic therapy; type: in vivo, C57BL6 mice; details: high-fat diet mice, oral 10 mg/kg (based on chlorin e6), after 22 days; for plasma insulin concentration, administration+light irradiation: laser 0.7 J/cm^2, repeated after 4 days; for plasma insulin concentration, administration only: no light
Experimental: (§1) After 4 days, photodynamic therapy was performed once again by the same method, and then, mouse blood was collected after 22 days. Plasma was isolated from blood to measure the concentrations of GIP (Merk Millipore, USA) and insulin (anti-insulin+pro insulin antibody (10 μg/ml, ab8304, Abcam)) by enzyme-linked immunosorbent assay (ELISA).

[3] = system: Human duodenal cells (HUTU-80)
Experimental: (§3) Human duodenal cells (HUTU-80) and canine kidney cells (MDCK) were aliquoted at a density of 1×10^4 cells/well in 0.2 ml portions in each well of a 96-well plate and cultured under conditions of 37° C. and 5% CO2 for 24 hours. On the next day, each well was treated with OA-PEG-Ce6 or polyethylene glycol-chlorin e6 at a concentration of 0.25 to 10 μg/ml (based on chlorin e6), and the corresponding treatment was performed by dividing a light non-irradiation group and a light irradiation group (irradiated with a laser with a wavelength of 671 nm at an intensity of 2 J/cm^2). Thereafter, cell viability was confirmed by the MTT test method.

[4] = system: Human duodenal cells (HUTU-80); test: Competitive inhibition of uptake in presence of fatty acid (flow cytometry); type: cell-based; details: 10 μg/ml (based on chlorin e6) with 0.10 to 10.00 mg/ml oleylethanolamine, 2 hours
Experimental: Thereafter, the cells were treated with both 0.10 to 10.00 mg/ml oleylethanolamine and 10 μg/ml OA-PEG-Ce6 (based on chlorin e6) and cultured for 2 hours. Thereafter, the cells were washed three times with DPBS, collected, and analyzed by a flow cytometer (BD FACSCanto II).

[5] = Obesity amelioration: body weight and fat mass after photodynamic therapy; type: in vivo, C57BL6 mice; details: high-fat diet mice, oral 10 mg/kg (based on chlorin e6), 22 days; for body weight, last day relative to before therapy, administration+light irradiation / fat mass, last day relative to before therapy, administration+light irradiation: laser 0.7 J/cm^2, repeated after 4 days; for fat mass, last day relative to before therapy, administration+light irradiation / fat mass, last day relative to before therapy, administration only: EchoMRI; for body weight, last day relative to before therapy, administration only / fat mass, last day relative to before therapy, administration only: no light
Experimental: After 4 days, photodynamic therapy was performed once again by the same method, and then, changes in body weight and fat mass were measured every other day for 22 days. The experimental results were shown in a bar graph by dividing the body weight and fat mass on the last day of the experiment by the body weight and fat mass before the photodynamic therapy and then converting the obtained values into percentages. Fat mass was measured with EchoMRI-500 (Echo MRI, Houston, TX).

[6] = mouse, in vivo, po, 10 mg/kg
Experimental: C57BL6 mice were fed a high-fat diet for 8 weeks to induce obese and diabetic conditions, and were divided into a control (PBS), a light irradiation group (Laser), a polyethylene glycol-chlorin e6 adiministration group (PC), a polyethylene glycol-chlorin e6 adiministration+light irradiation group (PCL), an OA-PEG-Ce6 adiministration group (OPC) and an OA-PEG-Ce6 adiministration+light sirradiation group (OPCL). Each group was orally administered the treated substance at a concentration of 10 mg/kg (based on chlorin e6), and after 30 minutes, a catheter was injected for endoscopic access and a laser was irradiated through the mouth.
Meanwhile, the accumulation degree of photosensitizer in the removed duodenum was confirmed with a fluorescence-labeled organism bioimaging instrument (Neo Science), and the fluorescence intensity of each tissue was graphically shown.

[7] = system: Human duodenal cells (HUTU-80); test: Intracellular distribution by confocal laser scanning microscopy; type: cell-based; details: 2 μg/ml (based on chlorin e6), 1 hour; CLSM
Experimental: (§2) Human duodenal cells (HUTU-80) and canine kidney epithelial cells (MDCK) were treated with OA-PEG-Ce6 and polyethylene glycol-chlorin e6 at a concentration of 2 μg/ml (based on chlorin e6) for 1 hour. Thereafter, the cells were washed three times with DPBS and fixed with 4% paraformaldehyde, and the cell nuclei were stained at 4° C. Thereafter, cell images were confirmed under a confocal laser scanning microscope (CLSM).

[8] = system: canine kidney epithelial cells (MDCK); test: as above; type: cell-based; details: 2 μg/ml (based on chlorin e6), 1 hour; CLSM
Experimental: as §2

[9] = system: Human duodenal cells (HUTU-80); test: Cytotoxicity and phototoxicity, MTT test; details: for treatment concentration at which cell viability decreased, light irradiation group: laser 671 nm, 2 J/cm^2, concentration based on chlorin e6
Experimental: as §3

[10] = system: Human duodenal cells (HUTU-80); test: Intracellular uptake by flow cytometry; type: cell-based; details: 2 μg/ml (based on chlorin e6), 1 hour and 4 hours
Experimental: Thereafter, the cells were treated with OA-PEG-Ce6 and polyethylene glycol-chlorin e6 as a comparative group at a concentration of 2 μg/ml (based on chlorin e6) for 1 hour and 4 hours, respectively. Thereafter, the cells were washed three times with DPBS, collected, and analyzed by a flow cytometer (BD FACSCanto II).

[11] = system: Human duodenal cells (HUTU-80); test: Intracellular active oxygen formation (DCFDA, confocal microscope); type: cell-based; details: 2 μg/ml (based on chlorin e6), 2 hours, light 0, 0.5, 1 and 1.5 J/cm^2, increasing intensity
Experimental: Thereafter, the cells were treated with OA-PEG-Ce6 at a concentration of 2 μg/ml (based on chlorin e6) for 2 hours, and washed three times with DPBS. The cells were treated with DCFDA diluted in DPBS, cultured for 30 minutes, and further washed three times with DPBS. The cells were irradiated with a light with an intensity of 0, 0.5, 1 and 1.5 J/cm^2 to induce a reaction between DCFDA incorporated into the cells and singlet oxygen. Fluorescence appears when the two substances react. Thereafter, the cells were fixed with 4% paraformaldehyde, the cell nuclei were stained with DAPI, and images were confirmed under a confocal microscope.

GIP = test: Plasma GIP by ELISA after photodynamic therapy; type: in vivo, C57BL6 mice; details: high-fat diet mice, oral 10 mg/kg (based on chlorin e6), after 22 days; for plasma GIP concentration, administration+light irradiation: laser 0.7 J/cm^2, repeated after 4 days; for plasma GIP concentration, administration only: no light
Experimental: as §1

[12] = molecular target: T1, HEK-293 cells expressing GPR119 (Homo sapiens, UniProt Q8TDV5); test: Uptake according to GPR119 expression level (flow cytometry); type: cell-based; details: GPR119 expression vector 0, 4 and 8 μg, 2 μg/ml (based on chlorin e6)
T1 construct: expressed in transfected cells; host or cells: HEK-293
T1 sequence (Q8TDV5 1-335): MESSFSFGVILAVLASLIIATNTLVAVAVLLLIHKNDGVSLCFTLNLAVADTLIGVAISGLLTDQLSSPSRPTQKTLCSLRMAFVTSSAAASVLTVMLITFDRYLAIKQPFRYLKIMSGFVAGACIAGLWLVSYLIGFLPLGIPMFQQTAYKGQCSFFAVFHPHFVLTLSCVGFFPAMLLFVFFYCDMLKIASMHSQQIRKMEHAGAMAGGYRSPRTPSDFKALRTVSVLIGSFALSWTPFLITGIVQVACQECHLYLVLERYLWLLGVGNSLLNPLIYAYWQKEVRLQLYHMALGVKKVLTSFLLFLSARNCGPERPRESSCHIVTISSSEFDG
Experimental: In order to confirm the mechanism by which OA-PEG-Ce6 targets enteroendocrine cells, human fetal kidney cells (HEK-293) expressing G protein-coupled receptor 119 (GPR119), which is a receptor known to recognize fatty acids, were produced.
After 24 hours, a GPR119 expression vector (0, 4 and 8 μg) and polyethyleneimine (PEI) were added to a serum-free medium and mixed for 30 minutes so as to form a complex, and then each cell was treated with the complex for 4 hours. Thereafter, the medium was replaced with a medium containing bovine serum, and GPR119 was allowed to be expressed by culturing the cells for 48 hours. It was confirmed by western blotting whether GPR119 was expressed.
HEK-293 cells expressing GPR119 were treated with OA-PEG-Ce6 and polyethylene glycol-chlorin e6 as a comparative group at a concentration of 2 μg/ml (based on chlorin e6) for 1 hour and 4 hours, respectively. Thereafter, the cells were washed three times with DPBS, collected, and analyzed by a flow cytometer (BD FACSCanto II).

[13] = system: canine kidney cells (MDCK); test: Cytotoxicity and phototoxicity, MTT test; details: 0.25 to 10 μg/ml (based on chlorin e6), no light
Experimental: as §3

Compound | dispersion in the aqueous phase [2] | plasma insulin concentration, administration+light irradiation (insulin) [pg/mL] | plasma insulin concentration, administration only (insulin) [pg/mL] | body weight, last day relative to before therapy, administration+light irradiation [5] [%] | fat mass, last day relative to before therapy, administration+light irradiation [5] [%] | body weight, last day relative to before therapy, administration only [5] [%] | fat mass, last day relative to before therapy, administration only [5] [%] | treatment concentration at which cell viability decreased, light irradiation group [9] [µg/mL] | plasma GIP concentration, administration+light irradiation (GIP) [pg/mL] | plasma GIP concentration, administration only (GIP) [pg/mL] | also measured
C=Cc1c(C)c2cc3nc(c(CC(=O)O)c4[nH]c(cc5nc(cc1[nH]2)C(C)=C5CC)c(C)c4C(=O)O)[C@@H](CCC(=O)O)[C@@H]3C [chlorin e6] | could not be dispersed in the aqueous phase |  |  |  |  |  |  |  |  |  | ability to form active oxygen (singlet oxygen) [1]: could hardly form active oxygen
oleic acid-polyethylene glycol-chlorin e6 [OA-PEG-Ce6] | well dispersed in water | 758.0 | 210.5 | 83.6 | 47.2 | 91.1 | 62.8 | ≥ 0.5 | 177.7 | 435.5 | concentration at which cell viability decreased, light non-irradiation group [3]: ≥ 2500 ng/mL; intracellular uptake (fluorescence intensity) with increasing oleylethanolamine [4]: intracellular uptake was reduced; accumulation degree of photosensitizer in the duodenum [6]: remarkably large amount of photosensitizer was accumulated; incorporation into cells versus conjugate without targeting substance [7]: more incorporated into cells than polyethylene glycol-chlorin e6 (PC); incorporation into HUTU-80 versus MDCK cells [8]: more incorporated into human duodenal cells (HUTU-80) than in canine kidney epithelial cells (MDCK); amount absorbed by the cells [10]: more absorbed by the cells than polyethylene glycol-chlorin e6 (PC); intracellular active oxygen generation (DCFDA green fluorescence) [11]: generated a large amount of active oxygen; intracellular accumulation rate with increasing GPR119 expression [12]: partially increased
polyethylene glycol-chlorin e6 [reference compound] | well dispersed in water | 374.3 | 304.3 | 90.1 | 60.0 | 93.1 | 68.4 | ≥ 2.5 | 339.6 | 289.1 | change in cell viability, light non-irradiation group ([9]; 0.25 to 10 μg/ml (based on chlorin e6), no light): almost no change in cell viability; change in cell viability, light non-irradiation group [13]: no change in the cell viability
